# Measured values taken from patent US20240108009A1, “1-AMINO-1-CYCLOPROPANECARBOXYLIC ACID AND JASMONIC ACID MIXTURES AND USES THEREOF” (Valent BioSciences LLC, priority 2022, published 2024).
# Tests used:
# Type in all cases: in vivo
# Gala apples [1] = assay: Apple coloration in Gala variety (Example 2, Table 2); conditions: 34 hours post spray; for Average % Red Pixel Area: 300 ppm foliar spray; for Fold Change From control: 300 ppm
# Method: (§1) To determine if the mixture provided unexpected results, the observed combined efficacy (“OCE”) was divided by the expected combined efficacy (“ECE”) wherein the ECE is calculated by the Abbott method: […]
# (§2) wherein ECE is the expected combined efficacy and in which A and B are the fold change from control given by the single active ingredients. If the ratio between the OCE of the mixture and the ECE of the mixture is greater than 1, then greater than expected interactions are present in the mixture. (Gisi, Synergistic Interaction of Fungicides in Mixtures, The American Phytopathological Society, 86:11, 1273-1279, 1996).
# (§3) 10 sets of unripened apples, Gala variety, harvested three weeks before the normal harvest date, were each foliar sprayed with either 1) 0.05% Regulaid® as a control, 2) 300 ppm jasmonic acid, 3) 300 ppm ACC or 4) a mixture of 300 ppm jasmonic acid and 300 ppm ACC. 34 hours post spray application percent red pixel area (shaded) was measured. Additionally, this study was repeated while adding [S]-trans-2-Amino-4-(2-aminoethoxy)-3-butenoic acid hydrochloride (Retain®, Retain is a registered trademark of Valent BioSciences LLC) to the application.
# Cripps Pink apples = assay: Apple coloration in Cripps Pink variety, repeat (Example 11); conditions: Cripps Pink (Example 11, repeat), 34 hours post spray
# Method: as §1, §2
# (§4) The experiment detailed in Example 10 was repeated. Specifically, 10 sets of unripened apples, Cripps Pink variety, harvested three weeks before the normal harvest date, were each foliar sprayed with either 1) 0.05% Regulaid® as a control, 2) 50 ppm jasmonic acid, 3) 300 ppm jasmonic acid, 4) 50 ppm ACC, 5) 300 ppm ACC, 6) a mixture of 50 ppm jasmonic acid and 50 ppm ACC, 7) a mixture of 50 ppm jasmonic acid and 300 ppm ACC, 8) a mixture of 300 ppm jasmonic acid and 50 ppm ACC or 9) a mixture of 300 ppm jasmonic acid and 300 ppm ACC. 34 hours post spray application percent red pixel area (shaded) was measured. The OCE/ECE ratio formula was modified to ECE=A+B−(A*B) to account for reduced average % red pixel area over control for each of the ACC applications.
# Gala apples [2] = assay: Apple coloration in Gala variety, study repeated with Retain added (Example 2, Table 3); conditions: 300 ppm, 34 hours post spray; for Average % Red Pixel Area: Retain added to the application; for Fold Change From control: Retain added
# Method: as §1, §2, §3
# Evercrisp apples = assay: Apple coloration in Evercrisp variety (Example 9); conditions: 34 hours post spray
# Pink Lady apples = assay: Apple coloration in Pink Lady variety (Example 12); conditions: 34 hours post spray
# Method: as §1, §2
# as §4, with “10” for “The experiment detailed in Example 10 was repeated. Specifically, 10”, “apples,” for “apples, Cripps”, “Pink Lady” for “Pink”
# Honeycrisp apples [3] = assay: Apple coloration in Honeycrisp variety (Example 1), percent red pixel area; conditions: 43 hours post spray; for Average % Red Pixel Area: 50 ppm foliar spray; for Fold Change From control: 50 ppm
# Method: 10 sets of unripened green apples, Honeycrisp variety, harvested three weeks before the normal harvest date, were each foliar sprayed with either 1) 0.05% of a mixture of polyoxyethylene-polyoxypropylene polymer, propylene glycol, 2-butoxyethanol (Regulaid®, Regulaid is a registered trademark of Kalo, Inc.) as a control, 2) 50 parts per million (“ppm”) jasmonic acid, 3) 50 ppm ACC or 4) a mixture of 50 ppm jasmonic acid and 50 ppm ACC. 43 hours post spray application percent red pixel area (shaded) was measured. Percent red pixel area is an indication of the coloration of the apple fruit.
# as §1, §2
# Red Aztec Fuji apples = assay: Apple coloration in Red Aztec Fuji variety (Example 7); conditions: 34 hours post spray
# Method: as §1, §2
# 10 sets of unripened apples, Red Aztec Fuji variety, harvested three weeks before the normal harvest date, were each foliar sprayed with either 1) 0.05% Regulaid® as a control, 2) 50 ppm jasmonic acid, 3) 300 ppm jasmonic acid, 4) 50 ppm ACC, 5) 300 ppm ACC, 6) a mixture of 50 ppm jasmonic acid and 50 ppm ACC, 7) a mixture of 50 ppm jasmonic acid and 300 ppm ACC, 8) a mixture of 300 ppm jasmonic acid and 50 ppm ACC or 9) a mixture of 300 ppm jasmonic acid and 300 ppm ACC. 34 hours post spray application percent red pixel area (shaded) was measured.
# Fuji apples = assay: Apple coloration in Fuji variety (Example 6); conditions: 34 hours post spray
# Method: as §1, §2
# 10 sets of unripened apples, Fuji variety, harvested three weeks before the normal harvest date, were each foliar sprayed with either 1) 0.05% Regulaid® as a control, 2) 50 ppm jasmonic acid, 3) 300 ppm jasmonic acid, 4) 50 ppm ACC, 5) 300 ppm ACC, 6) a mixture of 50 ppm jasmonic acid and 50 ppm ACC, 7) a mixture of 50 ppm jasmonic acid and 300 ppm ACC, 8) a mixture of 300 ppm jasmonic acid and 50 ppm ACC or 9) a mixture of 300 ppm jasmonic acid and 300 ppm ACC. 34 hours post spray application percent red pixel area (shaded) was measured.
# Honeycrisp apples [4] = assay: Apple coloration in Honeycrisp variety (Example 5); conditions: 34 hours post spray
# Method: as §1, §2
# 10 sets of unripened apples, Honeycrisp variety, harvested three weeks before the normal harvest date, were each foliar sprayed with either 1) 0.05% Regulaid® as a control, 2) 50 ppm jasmonic acid, 3) 300 ppm jasmonic acid, 4) 50 ppm ACC, 5) 300 ppm ACC, 6) a mixture of 50 ppm jasmonic acid and 50 ppm ACC, 7) a mixture of 50 ppm jasmonic acid and 300 ppm ACC, 8) a mixture of 300 ppm jasmonic acid and 50 ppm ACC or 9) a mixture of 300 ppm jasmonic acid and 300 ppm ACC. 34 hours post spray application percent red pixel area (shaded) was measured.
SMILES,Average % Red Pixel Area (Gala apples [1]) [%],Fold Change From control (Gala apples [1]),Average % Red Pixel Area (Cripps Pink apples; 50 ppm) [%],Fold Change From control (Cripps Pink apples; 50 ppm),Average % Red Pixel Area (Cripps Pink apples; 300 ppm) [%],Fold Change From control (Cripps Pink apples; 300 ppm),Average % Red Pixel Area (Gala apples [2]) [%],Fold Change From control (Gala apples [2]),Average % Red Pixel Area (Evercrisp apples; 50 ppm) [%],Fold Change From control (Evercrisp apples; 50 ppm),Average % Red Pixel Area (Evercrisp apples; 300 ppm) [%],Fold Change From control (Evercrisp apples; 300 ppm),Average % Red Pixel Area (Pink Lady apples; 50 ppm) [%],Fold Change From control (Pink Lady apples; 50 ppm),Average % Red Pixel Area (Pink Lady apples; 300 ppm) [%],Fold Change From control (Pink Lady apples; 300 ppm),Average % Red Pixel Area (Honeycrisp apples [3]) [%],Fold Change From control (Honeycrisp apples [3]),Average % Red Pixel Area (Red Aztec Fuji apples; 50 ppm) [%],Fold Change From control (Red Aztec Fuji apples; 50 ppm),other results
"NC1(C(=O)O)CC1 [ACC, 1-amino-1-cyclopropanecarboxylic acid]",3.63,0.92,34.68,0.70,48.78,0.99,4.71,1.03,46.78,1.48,72.16,2.82,24.63,0.68,28.83,0.80,4.74,1.18,17.08,−0.04,Average % Red Pixel Area (Red Aztec Fuji apples; 300 ppm): 15.84%; Fold Change From control (Red Aztec Fuji apples; 300 ppm): −0.11; Average % Red Pixel Area (Fuji apples; 50 ppm): 20.61%; Fold Change From control (Fuji apples; 50 ppm): 0.02; Average % Red Pixel Area (Fuji apples; 300 ppm): 25.47%; Fold Change From control (Fuji apples; 300 ppm): 0.26; Average % Red Pixel Area (Honeycrisp apples [4]; 50 ppm): 4.70%; Fold Change From control (Honeycrisp apples [4]; 50 ppm): −0.49; Average % Red Pixel Area (Honeycrisp apples [4]; 300 ppm): 3.80%; Fold Change From control (Honeycrisp apples [4]; 300 ppm): 0.59
CC/C=C\C[C@H]1C(=O)CC[C@@H]1CC(=O)O [jasmonic acid],61.5,15.53,63.91,1.30,85.52,1.74,24.85,5.41,40.67,1.15,70.81,2.75,68.55,1.91,76.7,2.13,38.66,9.64,22.53,0.26,Average % Red Pixel Area (Red Aztec Fuji apples; 300 ppm): 75.2%; Fold Change From control (Red Aztec Fuji apples; 300 ppm): 3.21; Average % Red Pixel Area (Fuji apples; 50 ppm): 24.55%; Fold Change From control (Fuji apples; 50 ppm): 0.21; Average % Red Pixel Area (Fuji apples; 300 ppm): 60.29%; Fold Change From control (Fuji apples; 300 ppm): 1.98; Average % Red Pixel Area (Honeycrisp apples [4]; 50 ppm): 5.00%; Fold Change From control (Honeycrisp apples [4]; 50 ppm): −0.46; Average % Red Pixel Area (Honeycrisp apples [4]; 300 ppm): 31.37%; Fold Change From control (Honeycrisp apples [4]; 300 ppm): 2.42
